Columns and labels:
[1] = tested on: subintestinal vessels (SIVs) of wild type zebrafish; assay: Ectopic subintestinal vessel (SIV) sprouting in wild type zebrafish (AP staining / confocal imaging); type: in vivo; conditions: for ectopic SIV branching: 3.5 dpf wild type larva treated with 10 μM at 2.5 dpf, vs DMSO
Protocol: (§1) FIG. 6 illustrates quantitation of SW vascular plexus width and ectopic ventral SW sprout number and length. The maximal width of the normal SIV plexus is measured from supraintestinal artery to subintestinal vein (1). The number of ectopic sprouts greater than 1 μm in length projecting ventrally from the subintestinal vein is counted, and the total length of all of these sprouts (2) is measured. […] Scale bar 30 μm.
Zebrafish Husbandry and Injection: Zebrafish were raised by standard methods. The Tg(fli1:EGFP)^y1, Tg(fli1:nEGFP)^y7 [Yaniv et al., Nat Med 12, 711-716 (2006)] and Tg(flt1:YFP)^hu4624 [Hogan et al., Nat Genet 41, 396-398 (2009)] lines were previously derived. MOs and DNA were injected as further described below.
(§2) Microangiography and Cell Transplants: 10 μM Atorvastatin (Sigma), 1 ug/μl DiI-LDL (Invitrogen), 6 μg/ml C6 in 0.5% BSA Fatty Acid Free (Sigma A8806) and Human Apolipoprotein B-100 (A50220H Meridian Life Science) in 0.5% BSA Fatty Acid Free (Sigma A8806) microangiography was performed at 2.5 dpf as described [Isogai et al., Dev Biol 230, 278-301 (2001)]. HEK293 cells co-transfected with Huh7MTP+apoB34 (see herein below) or un-transfected control cells were transplanted into the perivitelline space of one side of the yolk of 2.5 dpf stl; Tg(fli1:EGFP)^y1 mutant or WT embryos, ventral to the developing SIVs [Nicoll et al., J Cell Mol Med (2008)].
(§3) In Situ Hybridization, Oil Red 0, and Alkaline Phosphatase (AP) Staining: Embryos were fixed overnight in 4% PFA and processed for AP staining [Habeck et al., Curr Biol 12, 1405-1412 (2002)], Oil Red 0 staining [Schlegel et al., Biochemistry 45, 15179-15187 (2006)], or whole-mount in situ hybridization using antisense mRNA probes for vegfr1, vegfr2, vegfr3 and VeCad as described [Pham et al., Dev Biol 303, 772-783 (2007)].
Microscopy and Imaging: Zebrafish embryos used for imaging or in situ hybridization were treated with 0.00 3% phenylthiourea from 8hpf to inhibit melanin pigment formation. […]

WT zebrafish embryos = assay: Survival of WT zebrafish embryos treated with oleic acid; type: in vivo; conditions: increasing concentrations
Protocol: FIG. 11 is a survival curve of WT zebrafish embryos treated with increasing concentrations of oleic acid. Only embryos treated with less than 6 μg/ml oleic acid survived until 6 dpf.

apoCII morphants = assay: Fatty acid feeding of apoCII morphants, trunk ISV phenotype; type: in vivo, zebrafish; conditions: medium supplemented with 6 μg/ml (C6)
Protocol: (§4) Fatty Acids Feeding of Zebrafish Embryos: Dechorionized 24 hours post fertilization (hpf) embryos were incubated with 6 μg/ml short, intermediate or long chain fatty acid in a solution containing 0.1% BSA Fatty Acid Free (Sigma A8806) for 48 hours. Embryos were then fixed overnight in 4% PFA and processed for AP staining.

stl mutants = assay: Rescue of ectopic SIV sprouts in stl mutant zebrafish; type: in vivo; conditions: for excess angiogenesis / ectopic branching phenotype of stl mutants: intravascular supply at 2.5 dpf
Protocol: as §1
Cloning of mtp and Rescue of the Mutant Phenotype: The full-length coding sequence of zebrafish mtp was amplified by PCR from WT cDNA and cloned into a pCSDest vector [Villefranc et al., Dev Dyn 236, 3077-3087 (2007)] as further described herein below. mtp mRNA was synthesized with mMessage mMachine kit (Ambion) and injected at a concentration of 232 pg per embryo into the 1 cell stage cytoplasm or into the YSL at dome stage (approximately at 4 hpf).
as §2, §3
pCS2vegfrlCDS mRNA ([…]) and pCS2mtpCDSmRNA ([…]) were injected at the 1 cell stage or at dome stage, respectively.
as §4

trunk ISVs = assay: Trunk intersegmental vessel (ISV) phenotype of morpholino-injected zebrafish; type: in vivo; conditions: 3.5 dpf MO-injected zebrafish
Protocol: Microscopy and Imaging: Zebrafish embryos used for imaging or in situ hybridization were treated with 0.00 3% phenylthiourea from 8hpf to inhibit melanin pigment formation. Confocal imaging was performed using a FVIOOO Olympus imaging system or Zeiss LSM780 upright confocal microscope equipped with ×20 NA 1.0 lens.
Injection of Zebrafish Embryos: The mtp [Schlegel, A. & Stainier, D. Y. Biochemistry 45, 15179-15187 (2006)], apoCII [Pickart, M. A., et al. PLoS One 1, e104 (2006);
MOs (Gene-Tools) were resuspended and injected at concentrations from 5-20 ng/embryo.

[2] = stl mutants injected intravascularly at 2.5 dpf, vs not injected

**Q.** With `CC(C)c1c(C(=O)Nc2ccccc2)c(-c2ccccc2)c(-c2ccc(F)cc2)n1CC[C@@H](O)C[C@@H](O)CC(=O)O` [atorvastatin, Atorvastatin] as the molecule, how does the “ectopic SIV branching” value [1] read?
**A.** The value was “efficiently phenocopied the excess angiogenesis phenotype of stl mutants”.

**Q.** And the “ectopic SIV branching” value ([1]; listed as Atorvastatin)?
**A.** Its value is “results in ectopic SW branching”.

**Q.** With `CCCCCCCC/C=C\CCCCCCCC(=O)O` [oleic acid] as the molecule, how does the “oleic acid concentration at which embryos survived until 6 dpf” value (WT zebrafish embryos) read?
**A.** Its value is “less than 6 μg/ml”.

**Q.** `CCCCCC(=O)O` [scFA] was tested. Which “trunk ISV phenotype of apoCII morphants” value (apoCII morphants) did it give?
**A.** Its value is “No phenotypic changes were detected”.

**Q.** And the “ectopic vessels phenotype of stl mutants” value (stl mutants; 3.5 dpf stl mutants, 6 μg/ml fatty acid in embryo medium)?
**A.** Its value is “did not inhibit the ectopic vessels phenotype”.

**Q.** What about the “excess angiogenesis / ectopic branching phenotype of stl mutants” value (stl mutants) of the same molecule?
**A.** The value was “did not rescue the ectopic branching phenotype”.

**Q.** For “delipidated form of apoB-100: Human Apolipoprotein B-100 (A50220H Meridian Life Science)”, which “excess angiogenesis / ectopic branching phenotype of stl mutants” value (stl mutants) is on record?
**A.** The value was “efficiently reverted the excess angiogenesis phenotype”.

**Q.** What about the “average number of ectopic SIV segments” value (stl mutants; [2]) of the same molecule?
**A.** Its value is “significantly reduced”.

**Q.** What about the “average total length of ectopic SIV segments” value (stl mutants; [2]) of the same molecule?
**A.** The value was “significantly reduced”.

**Q.** “vegfr1 MO: vegfr1 ATG blocking morpholino, SEQ ID NO: 1, 5′-ATATCGAACATTCTCTTGGTCTTGC-3′ (all phosphorodiamidate morpholino (PMO))” was tested. Which “ectopic SIV sprouts after morpholino injection” value ([1]; 3.5 dpf Tg(fli-EGFP)y1 zebrafish, MO-injected) did it give?
**A.** Its value is “ectopic SIV sprouts”.

**Q.** And the “trunk ISV phenotype” value (trunk ISVs)?
**A.** Its value is “ectopic branching and sprouting”.

Reference: patent publication US9617331B2, “Methods of regulating angiogenesis by administering agents which increase apoB-100 polypeptide” (Yeda Research and Development Co. Ltd., priority 2011, dated 2017)
